Experimental data taken from patent publication US12728112B2, “Application of sesquiterpene lactone in preparing drug for treating optic neuritis” (ACCENDATECH LUOYANG CO., LTD., priority 2020, dated 2026).
“Also recorded” adds a separate entry of the source.

Legend:
BV2 cells = assay: Proliferation activity of microglial cell BV2 (MTT and CCK8 methods); format: cell-based; conditions: Mus musculus
Source text: We then intended to use ACT001 for treating neuromyelitis optica.

[1] = tested on: TNF-α release by LPS-activated BV-2 cells; assay: TNF-α release/expression after LPS activation of BV-2 (ELISA); format: cell-based; conditions: for TNF-α expression in BV-2 cells: 1 μg/mL LPS
Protocol: (§1) BV2 cells were digested, counted and plated in a 24-well plate at 1 mL and 40,000 cells per well, and the cells were then incubated overnight in an incubator at 5% CO2 and 37° C. 1 μg/mL LPS was added into each well for 1 h of action, and then ACT001 at different concentrations was added. Five experimental groups were set, namely: (1) control group; (2) ACT001-2.5 μM group; (3) ACT001-5 μM group; (4) ACT001-10 μM group; and (5) ACT001-20 μM group. After 24 h of action, the drug action was completed, the supernatant was collected and centrifuged at 12,000 rpm for 20 min, and then ELISA was performed according to the kit instructions.

[2] = tested on: Lewis rat NMO disease models; assay: NMO animal model: NMO patient serum and complement injected intrathecally, behavioral scoring; format: in vivo; conditions: for Behavioral score: intragastric daily, ACT001 60 mg/kg, hormone 30 mg/kg
Protocol: Meanwhile, before establishing NMO animal models, firstly, the spinal intrathecal catheterization was performed on Lewis rats, wherein an outlet could be placed at the spinal cord and at the first lumbar vertebra of the rat by controlling the length (7 cm) of a PE10 soft tube. For the Lewis rats after spinal intrathecal catheterization, they had no difference in behavior from normal rats the next day after the operation. Successfully modeled rats were divided into three groups, and 10 μL of each of the serum and complement system of an NMO patient was injected into the soft tubes in the rats for which the intubation was successful, and the supplementation was performed every four days. The administration regimen was as follows: the model control group (6 animals) was intragastrically administered normal saline every day for 15 consecutive days; the hormone group (8 animals) was intragastrically administered the methylprednisolone […] for injection every day at a dose of 30 mg/kg for 15 consecutive days; and the ACT001 group (6 animals) was intragastrically administered the ACT001 solution every day at a dose of 60 mg/kg for 15 consecutive days. The animal state was observed daily, and behavioral scores were recorded based on animal symptoms.
10 μL of each of the serum and complement system of an NMO patient was injected into the soft tubes in the rats for which the spinal intrathecal catheterization was successful, and the supplementation was performed every four days, thus establishing the NMO animal models. Model animals were randomized into three groups, namely: the normal saline group, the hormone (methylprednisolone sodium succinate for injection) group and the ACT001 group, and the administration regimen is as follows:
Behavioral scoring was performed based on animal symptoms.
The scoring criteria were as follows: • 0 point: no clinical symptoms; • 1 point: decreased tail tension or mild gait clumsiness; • 2 points: no tail tension or moderate gait abnormality; weakness of both hind limbs and recovery after being turned over passively; • 3 points: paralysis of both hind limbs. no recovery after being turned over passively, but capable of moving after stimulation; • 4 points: paralysis of both hind limbs. paralysis or weakened muscle strength of the forelimbs with urinary and fecal incontinence; • 5 points: moribund state or dead.
Symptoms between two stages were measured as ±0.5.

[3] = tested on: NO release by LPS-activated BV-2 cells; assay: NO release after LPS activation of BV-2; format: cell-based
Source text: 5. FIG. 5 is a graph showing the effect of ACT001 on NO expression (*P<0.05, ** P<0.01, *** P<0.001).

[4] = tested on: IL-6 release by LPS-activated BV-2 cells; assay: IL-6 release/expression after LPS activation of BV-2 (ELISA); format: cell-based; conditions: for IL-6 expression in BV-2 cells: 1 μg/mL LPS
Protocol: as §1, with “and 20,000” for “and 40,000”, “After 8” for “After 24”
as §1

[5] = LPS-activated BV-2, ACT001 10 μM, vs control group, fumarate
[6] = LPS-stimulated microglial cells, concentration not given, fumarate

Compound | Behavioral score ([2]; day 0 of treatment) [points] | Behavioral score ([2]; day 1 of treatment) [points] | Behavioral score ([2]; day 2 of treatment) [points] | Behavioral score ([2]; day 3 of treatment) [points] | Behavioral score ([2]; day 4 of treatment) [points] | Behavioral score ([2]; day 5 of treatment) [points] | Behavioral score ([2]; day 6 of treatment) [points] | Behavioral score ([2]; day 7 of treatment) [points] | Behavioral score ([2]; day 8 of treatment) [points] | Behavioral score ([2]; day 9 of treatment) [points] | Behavioral score ([2]; day 10 of treatment) [points] | Behavioral score ([2]; day 11 of treatment) [points] | Behavioral score ([2]; day 12 of treatment) [points] | Behavioral score ([2]; day 13 of treatment) [points] | Behavioral score ([2]; day 14 of treatment) [points] | further results
CC1=C2CC[C@@](C)(O)[C@@H]2[C@H]2OC(=O)[C@@H](CN(C)C)[C@@H]2CC1.O=C(O)/C=C/C(=O)O [ACT001, (3R,3aS,9R,9aS,9bS)-3-((dimethylamino)methyl)-9-hydroxy-6,9-dimethyl-3,3a,4,5,7,8,9,9a-octahydroazuleno[4,5-b]furan-2(9bH)-one fumarate] | 0.00 ± 0.00 | 0.42 ± 0.20 | 0.17 ± 0.26 | 0.17 ± 0.26 | 0.00 ± 0.00 | 1.17 ± 0.68 | 1.00 ± 0.45 | 0.83 ± 0.68 | 0.33 ± 0.26 | 2.08 ± 0.86 | 1.25 ± 0.61 | 0.50 ± 0.00 | 2.00 ± 0.32 | 1.92 ± 0.38 | 1.17 ± 0.26 | IC50 (BV2 cells; BV-2, MTT/CCK8, read-out: IC50, inhibition of proliferation of BV2 cells): 23.6 µM; IC90 (BV2 cells; BV-2, read-out: IC90, in vitro activity inhibition against BV2 cells): 99.1 ± 10.2 µM; TNF-α expression in BV-2 cells ([1]; ACT001 2.5, 5 and 10 μM dose groups, dose-dependent trend (FIG. 4)): reduce TNF-α expression; TNF-α expression in BV-2 cells ([1]; all ACT001 dose groups (2.5-20 μM), p<0.001 vs control (text on FIG. 3)): significantly reduced; release/expression of TNF-α [1, 5]: remarkably reduce; also recorded: significantly reduced; release of TNF-α [1, 6]: significantly reduced; tolerance of animals during administration ([2]; ACT001 60 mg/kg intragastric daily, 15 days): well tolerated; disease symptoms / behavioral scores compared to the normal saline control group ([2]; ACT001 60 mg/kg intragastric daily, 15 days, fumarate, 60 mg/kg): significantly alleviated; also recorded: significantly reduce the behavioral scores; also recorded: significantly relieve clinical symptoms; effect compared to the hormone treatment group ([2]; ACT001 60 mg/kg vs methylprednisolone 30 mg/kg, intragastric, 15 days, fumarate): not weaker than that of hormone; also recorded: basically equivalent; Behavioral score ([2]; day 15 of treatment, fumarate): 2.00±0.32 points; pathological release of microglial cells NO ([3]; ACT001 5 μM (FIG. 5)): significantly could reduce; release of NO ([3]; LPS-activated microglia, ACT001 10 μM): remarkably reduce; release of NO [3, 6]: significantly reduced; IL-6 expression in BV-2 cells ([4]; ACT001 20 μM, p<0.001 vs control): significantly reduced; IL-6 expression in BV-2 cells ([4]; all ACT001 groups (2.5, 5, 10, 20 μM), dose-dependent trend): reduce IL-6 expression; release/expression of IL-6 [4, 5]: remarkably reduce; also recorded: significantly reduced; release of IL-6 [4, 6]: significantly reduced
C[C@H]1C[C@@H]2[C@H]([C@@H](O)C[C@@]3(C)[C@H]2CC[C@]3(O)C(=O)COC(=O)CCC(=O)O)[C@@]2(C)C=CC(=O)C=C12 [Hormone, methylprednisolone sodium succinate, reference compound] | 0.00 ± 0.00 | 0.63 ± 0.64 | 0.50 ± 0.38 | 0.44 ± 0.32 | 0.13 ± 0.23 | 1.75 ± 0.46 | 0.88 ± 0.23 | 0.63 ± 0.35 | 0.38 ± 0.23 | 2.06 ± 0.42 | 2.06 ± 0.42 | 0.88 ± 0.35 | 2.19 ± 0.26 | 2.19 ± 0.59 | 1.00 ± 0.38 | Behavioral score (Table 3, major research results) ([2]; 20 Lewis rats, female, intragastrically once daily for 15 times): group was 2.0 ± 0.3. points; Behavioral score ([2]; day 15 of treatment): 2.31 ± 0.26 points; Behavioral score ([2]; day 15 of treatment, listed as hormone): 2.31±0.26 points
